Source: PubChem BioAssay (NCI)
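Exposure lasted 48 hours, with cells grown in 96-well plates and compounds tested at five concentrations. Abbreviation: GI50, concentration required for 50% inhibition of growth. TGI is the concentration that stops growth completely.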

Columns and labels:
Assay in all cases: NCI tumour cell line growth inhibition, 48 h
[1] = tested on: MDA-MB-231 breast
[2] = tested on: CCRF-CEM leukemia
[3] = tested on: SW-620 colon
[4] = tested on: TK-10 renal
[5] = tested on: MALME-3M melanoma
[6] = tested on: BT-549 breast
[7] = tested on: HL-60(TB) leukemia
[8] = tested on: COLO 205 colon
[9] = tested on: SK-MEL-5 melanoma
[10] = tested on: SK-OV-3 ovarian
[11] = tested on: DU-145 prostate
[12] = tested on: OVCAR-8 ovarian
[13] = tested on: OVCAR-5 ovarian
[14] = tested on: RPMI-8226 leukemia
[15] = tested on: SK-MEL-2 melanoma
[16] = tested on: HCT-116 colon
[17] = tested on: OVCAR-3 ovarian
[18] = tested on: NCI/ADR-RES ovarian
[19] = tested on: HCC-2998 colon
[20] = tested on: T-47D breast
[21] = tested on: A498 renal
[22] = tested on: HOP-62 NSCLC
[23] = tested on: NCI-H226 lung
[24] = tested on: M14 melanoma
[25] = tested on: MOLT-4 leukemia
[26] = tested on: SF-295 CNS
[27] = tested on: RXF 393 renal
[28] = tested on: CAKI-1 renal
[29] = tested on: HT29 colon
[30] = tested on: NCI-H23 lung
[31] = tested on: NCI-H460 lung
[32] = tested on: IGROV1 ovarian
[33] = tested on: SF-539 CNS
[34] = tested on: SN12C renal
[35] = tested on: 786-0 renal
[36] = tested on: U251 CNS
[37] = tested on: SR leukemia
[38] = tested on: SNB-19 CNS
[39] = tested on: HCT-15 colon
[40] = tested on: SF-268 CNS
[41] = tested on: UACC-62 melanoma
[42] = tested on: UACC-257 melanoma
[43] = tested on: HOP-92 NSCLC
[44] = tested on: OVCAR-4 ovarian
[45] = tested on: HS 578T breast
[46] = tested on: LOX IMVI melanoma
[47] = tested on: SNB-75 CNS
[48] = tested on: KM12 colon
[49] = tested on: NCI-H522 lung
[50] = tested on: MCF7 breast
[51] = tested on: SK-MEL-28 melanoma
[52] = tested on: PC-3 prostate
[53] = tested on: ACHN renal
[54] = tested on: K-562 leukemia
[55] = tested on: UO-31 renal
[56] = tested on: MDA-MB-435
[57] = tested on: A549 NSCLC

**Q.** How did the GI50 [1] turn out when `COc1ccc(OC)c(N(CCN2C(=O)c3ccccc3C2=O)C(=O)CCl)c1` was run?
**A.** 1240 nM

**Q.** And the TGI [1]?
**A.** 7.51 µM

**Q.** And the GI50 [2]?
**A.** 229 nM

**Q.** And the TGI [2]?
**A.** 542 nM

**Q.** What about the GI50 [3] of the same compound?
**A.** 15.3 µM

**Q.** And the TGI [3]?
**A.** > 58.5 µM

**Q.** And the GI50 [4]?
**A.** 16.9 µM

**Q.** What about the TGI [4] of the same compound?
**A.** 39.9 µM

**Q.** What about the GI50 [5] of the same compound?
**A.** 706 nM

**Q.** What about the TGI [5] of the same compound?
**A.** 3.16 µM

**Q.** And the GI50 [6]?
**A.** 17.9 µM

**Q.** And the TGI [6]?
**A.** 46.7 µM

**Q.** And the GI50 [7]?
**A.** 202 nM

**Q.** And the TGI [7]?
**A.** 411 nM

**Q.** And the GI50 [8]?
**A.** 13.5 µM

**Q.** What about the TGI [8] of the same compound?
**A.** 29.3 µM

**Q.** What about the GI50 [9] of the same compound?
**A.** 16 µM

**Q.** What about the TGI [9] of the same compound?
**A.** 35.3 µM

**Q.** What about the GI50 [10] of the same compound?
**A.** 688 nM

**Q.** What about the TGI [10] of the same compound?
**A.** 2050 nM

**Q.** And the GI50 [11]?
**A.** 6.09 µM

**Q.** What about the TGI [11] of the same compound?
**A.** 37.7 µM

**Q.** And the GI50 [12]?
**A.** 7.5 µM

**Q.** What about the TGI [12] of the same compound?
**A.** 46.3 µM

**Q.** And the GI50 [13]?
**A.** 1420 nM

**Q.** And the TGI [13]?
**A.** 15.8 µM

**Q.** What about the GI50 [14] of the same compound?
**A.** 2060 nM

**Q.** And the TGI [14]?
**A.** 9.34 µM

**Q.** And the GI50 [15]?
**A.** 12.4 µM

**Q.** What about the TGI [15] of the same compound?
**A.** 35.1 µM

**Q.** What about the GI50 [16] of the same compound?
**A.** 17.7 µM

**Q.** And the TGI [16]?
**A.** 59.5 µM

**Q.** What about the GI50 [17] of the same compound?
**A.** 641 nM

**Q.** And the TGI [17]?
**A.** 1620 nM

**Q.** And the GI50 [18]?
**A.** 3.31 µM

**Q.** What about the TGI [18] of the same compound?
**A.** > 19.6 µM

**Q.** And the GI50 [19]?
**A.** 20.4 µM

**Q.** What about the TGI [19] of the same compound?
**A.** 56 µM

**Q.** And the GI50 [20]?
**A.** 18.9 µM

**Q.** What about the TGI [20] of the same compound?
**A.** 54.4 µM

**Q.** What about the GI50 [21] of the same compound?
**A.** 6.81 µM

**Q.** And the TGI [21]?
**A.** 25.4 µM

**Q.** And the GI50 [22]?
**A.** 379 nM

**Q.** And the TGI [22]?
**A.** 1970 nM

**Q.** And the GI50 [23]?
**A.** 30.9 µM

**Q.** What about the TGI [23] of the same compound?
**A.** > 89.2 µM

**Q.** What about the GI50 [24] of the same compound?
**A.** 24.6 µM

**Q.** And the TGI [24]?
**A.** > 100 µM

**Q.** And the GI50 [25]?
**A.** 10.3 µM

**Q.** What about the TGI [25] of the same compound?
**A.** 37.7 µM

**Q.** What about the GI50 [26] of the same compound?
**A.** 1090 nM

**Q.** And the TGI [26]?
**A.** 2440 nM

**Q.** And the GI50 [27]?
**A.** 615 nM

**Q.** And the TGI [27]?
**A.** 12.6 µM

**Q.** What about the GI50 [28] of the same compound?
**A.** 482 nM

**Q.** What about the TGI [28] of the same compound?
**A.** 2000 nM

**Q.** What about the GI50 [29] of the same compound?
**A.** 497 nM

**Q.** What about the TGI [29] of the same compound?
**A.** 2150 nM

**Q.** What about the GI50 [30] of the same compound?
**A.** 2260 nM

**Q.** And the TGI [30]?
**A.** 12.3 µM

**Q.** What about the GI50 [31] of the same compound?
**A.** 13.5 µM

**Q.** What about the TGI [31] of the same compound?
**A.** 48.5 µM

**Q.** What about the GI50 [32] of the same compound?
**A.** 121 nM

**Q.** What about the TGI [32] of the same compound?
**A.** 299 nM

**Q.** What about the GI50 [33] of the same compound?
**A.** 1130 nM

**Q.** And the TGI [33]?
**A.** 2680 nM

**Q.** What about the GI50 [34] of the same compound?
**A.** 22.7 µM

**Q.** And the TGI [34]?
**A.** > 100 µM

**Q.** And the GI50 [35]?
**A.** 901 nM

**Q.** And the TGI [35]?
**A.** 3.1 µM

**Q.** What about the GI50 [36] of the same compound?
**A.** 3.74 µM

**Q.** What about the TGI [36] of the same compound?
**A.** 17.8 µM

**Q.** And the GI50 [37]?
**A.** 119 nM

**Q.** What about the GI50 [38] of the same compound?
**A.** 30.4 µM

**Q.** And the TGI [38]?
**A.** > 100 µM

**Q.** And the GI50 [39]?
**A.** 11.6 µM

**Q.** And the TGI [39]?
**A.** > 54.6 µM

**Q.** What about the GI50 [40] of the same compound?
**A.** 931 nM

**Q.** And the TGI [40]?
**A.** 3.2 µM

**Q.** And the GI50 [41]?
**A.** 6.24 µM

**Q.** What about the TGI [41] of the same compound?
**A.** 21.6 µM

**Q.** What about the GI50 [42] of the same compound?
**A.** 20.7 µM

**Q.** And the TGI [42]?
**A.** 88 µM

**Q.** What about the GI50 [43] of the same compound?
**A.** 181 nM

**Q.** What about the TGI [43] of the same compound?
**A.** 480 nM

**Q.** And the GI50 [44]?
**A.** 230 nM

**Q.** What about the TGI [44] of the same compound?
**A.** 554 nM

**Q.** What about the GI50 [45] of the same compound?
**A.** 13.7 µM

**Q.** And the TGI [45]?
**A.** 68.9 µM

**Q.** What about the GI50 [46] of the same compound?
**A.** 191 nM

**Q.** What about the TGI [46] of the same compound?
**A.** 406 nM

**Q.** And the GI50 [47]?
**A.** 288 nM

**Q.** What about the TGI [47] of the same compound?
**A.** 1220 nM

**Q.** And the GI50 [48]?
**A.** 617 nM

**Q.** And the TGI [48]?
**A.** 5.17 µM

**Q.** And the GI50 [49]?
**A.** 63.1 nM

**Q.** What about the TGI [49] of the same compound?
**A.** 157 nM

**Q.** What about the GI50 [50] of the same compound?
**A.** 14.2 µM

**Q.** And the TGI [50]?
**A.** 43 µM

**Q.** What about the GI50 [51] of the same compound?
**A.** 23.4 µM

**Q.** What about the TGI [51] of the same compound?
**A.** 91.2 µM

**Q.** What about the GI50 [52] of the same compound?
**A.** 14 µM

**Q.** What about the TGI [52] of the same compound?
**A.** 67 µM

**Q.** And the GI50 [53]?
**A.** 831 nM

**Q.** What about the TGI [53] of the same compound?
**A.** 4.85 µM

**Q.** And the GI50 [54]?
**A.** 21.3 µM

**Q.** And the TGI [54]?
**A.** > 70.4 µM

**Q.** What about the GI50 [55] of the same compound?
**A.** 66.7 nM

**Q.** What about the TGI [55] of the same compound?
**A.** 154 nM

**Q.** What about the GI50 [56] of the same compound?
**A.** 15.6 µM

**Q.** And the TGI [56]?
**A.** 66.7 µM

**Q.** What about the GI50 [57] of the same compound?
**A.** 9.35 µM

**Q.** And the TGI [57]?
**A.** 44.7 µM
